This note sets out measurements from the supplement of paper PMC11061612.

The subject of experiment [1] is BICR78 (Oral Cavity Carcinoma). The experiment is described as follows: Bliss excess, mean over the matrix (fraction); higher = more synergy. In outline: (§1)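 Cell lines grown in DMEM/F12 or RPMI with 10% FBS were plated in 1536-well plates and held 24 hours at 37°C, 5% CO2 before 72 hours of exposure to two-drug dose matrices, with DMSO typically at 0.2%. CellTiter-Glo 2.0 luminescence gave viability, which was converted to inhibition. Vehicle wells were set to 0 and blank wells to 1. Combination Emax is the second-highest inhibition in the matrix, and Bliss excess is the observed combination effect minus the expected EA + EB − EA·EB, where EA and EB are the single-agent effects.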

In experiment [2] the test system is EKVX (Non-Small Cell Lung Carcinoma). The description is as above. In outline:
as §1

For experiment [3], the system named is HCT-116 (Colorectal Carcinoma). Described as above. In outline:
as §1

The test system of experiment [4] is JHH-6 (Hepatocellular Carcinoma). The experiment is described as above. In outline: as §1
For experiment [5], the system named is MES-SA (Other Solid Carcinomas). The description is as above. In outline:
as §1

In experiment [6] the test system is SK-LMS-1 (Other Solid Carcinomas). Described as above. In outline: as §1
For experiment [7], the system named is 647-V (Bladder Carcinoma). The experiment is described as follows: combination Emax (second highest fraction inhibited in the dose matrix, 72 h); higher = more inhibition; extreme values may be limits of the assay. In outline:
as §1

For experiment [8], the system named is BICR78 (Oral Cavity Carcinoma). The experiment is described as above. In outline: as §1
The test system of experiment [9] is DOK (Oral Cavity Carcinoma). The description is as above. In outline: as §1
Experiment [10] relates to ETK-1 (Biliary Tract Carcinoma). Described as above. In outline: as §1
The test system of a further experiment is EW-22 (Ewing's Sarcoma). The description is as above. In outline: as §1
The test system of another experiment is HCC38 (Breast Carcinoma). Described as above. In outline:
as §1

Experiment [11] has as its system HLE (Hepatocellular Carcinoma). Described as above. In outline:
as §1

Experiment [12] has as its system MES-SA (Other Solid Carcinomas). The description is as above. In outline:
as §1

Experiment [13] concerns P31-FUJ (Acute Myeloid Leukemia). The experiment is described as above. In outline:
as §1

Experiment [14] deals with SK-UT-1 (Other Solid Carcinomas). The experiment is described as above. In outline: as §1
Experiment [15] has as its system SNG-M (Endometrial Carcinoma). The description is as above. In outline:
as §1

Experiment [16] concerns TYK-nu (Ovarian Carcinoma). The description is as above. In outline:
as §1

Experiment [17] concerns WSU-DLCL2 (B-Cell Non-Hodgkin's Lymphoma). The experiment is described as above. In outline:
as §1

The test system of experiment [18] is YT (Other Blood Carcinomas). The experiment is described as above. In outline: as §1
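Wherever Bliss excess, mean over the matrix is given: after 72 h of two-drug dosing.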

As to `CC1(C)CCC(CN2CCN(c3ccc(C(=O)NS(=O)(=O)c4ccc(NCC5CCOCC5)c([N+](=O)[O-])c4)c(Oc4cnc5[nH]ccc5c4)c3)CC2)=C(c2ccc(Cl)cc2)C1` [Venetoclax] + C1CN(CCC1(C(=O)N[C@@H](CCO)C2=CC=C(C=C2)Cl)N)C3=NC=NC4=C3C=CN4 [Capivasertib] (first compound max 1 µM, 7x7, partner max 3 µM), the Bliss excess is -0.0342 in [1]; -0.0306 in [2]; -0.0801 in [3]; -0.0791 in experiment [4]; -0.0597 in experiment [5]; -0.0485 in experiment [6]. The “combination Emax” value amounted to 0.218 in [7]; 0.323 in experiment [8]; 0.331 in experiment [9]; 0.331 in experiment [10]; 0.905 in the experiment with EW-22 (Ewing's Sarcoma); 0.244 in the experiment on HCC38 (Breast Carcinoma). Further, the “combination Emax” value in experiment [11] came to 0.181; in [12], 0.355; in [13], 0.896; in experiment [14] it was 0.34; in experiment [15], 0.416; in experiment [16], 0.298. The “combination Emax” value in experiment [17] amounted to 1; in [18] it was 0.47.

Take `CCN(CCO)CCCOc1ccc2c(Nc3cc(CC(=O)Nc4cccc(F)c4)[nH]n3)ncnc2c1` [AZD2811] + C[C@@H]1COCCN1C2=NC(=NC(=C2)C3(CC3)[S@](=N)(=O)C)C4=C5C=CNC5=NC=C4 [AZD6738] (first compound max 1 µM, 7x7, partner max 10 µM): the Bliss excess in experiment [1] is -0.0215; in experiment [2], -0.0558; in experiment [3], -0.0825; in experiment [4], -0.0342; in [5], -0.0328; in [6], -0.0249. Moreover, the “combination Emax” value in experiment [7] was found to be 0.524; in experiment [8], 0.637; in experiment [9] it was 0.44; in [10], 0.562; in the experiment with EW-22 (Ewing's Sarcoma) it was 0.894; in the experiment with HCC38 (Breast Carcinoma) it was 0.568. The “combination Emax” value was 0.76 in [11]; 0.654 in [12]; 0.942 in experiment [13]; 0.816 in experiment [14]; 0.932 in experiment [15]; 0.717 in [16]. Also, the “combination Emax” value in [17] worked out at 0.822; in experiment [18] it was 0.76.

Take `Cc1c2c(nn1C)CSCc1cc(n(C)n1)CSc1cc(c3ccccc3c1)OCCCc1c(C(=O)O)n(C)c3c-2c(Cl)ccc13` [AZD5991] + C1CN(CCC1(C(=O)N[C@@H](CCO)C2=CC=C(C=C2)Cl)N)C3=NC=NC4=C3C=CN4 [Capivasertib] (first compound max 1 µM, 7x7, partner max 3 µM): the Bliss excess in [1] was -0.0198; in [2] it was -0.015; in experiment [3], -0.0275; in [4], -0.0163; in experiment [5] it was -0.0144; in experiment [6], 0.0054. The “combination Emax” value in experiment [7] came to 0.676; in [8], 0.266; in [9] it was 0.383; in experiment [10], 0.254; with EW-22 (Ewing's Sarcoma), 0.624; with HCC38 (Breast Carcinoma), 0.506. For the same molecule, the “combination Emax” value was 0.279 in [11]; 0.367 in experiment [12]; 0.99 in [13]; 0.24 in experiment [14]; 0.333 in experiment [15]; 0.36 in experiment [16]. Further, the “combination Emax” value in experiment [17] and in experiment [18] was 1 each time.

For `COc1cccc(OCCCN)c1-c1cc(Nc2cnc(C#N)cn2)n[nH]1` [Prexasertib] + C[C@@H]1COCCN1C2=NC(=NC(=C2)C3(CC3)[S@](=N)(=O)C)C4=C5C=CNC5=NC=C4 [AZD6738] (first compound max 1 µM, 7x7, partner max 10 µM), the Bliss excess is -0.0057 in [1]; -0.0018 in experiment [2]; 0.103 in [3]; 0.0207 in [4]; -0.0765 in experiment [5]; -0.029 in experiment [6]. In addition, the “combination Emax” value in experiment [7] was determined as 0.703; in experiment [8], 0.645; in experiment [9] it was 0.43; in experiment [10], 0.588; in the experiment with EW-22 (Ewing's Sarcoma), 0.888; in the experiment on HCC38 (Breast Carcinoma), 0.723. Moreover, the “combination Emax” value was 0.867 in experiment [11]; 0.757 in [12]; 1 in [13]; 0.926 in experiment [14]; 1 in experiment [15]; 0.766 in experiment [16]. The figures for the “combination Emax” value in experiment [17] and in [18] were 1 and 0.918, respectively.

As to `CC1(C)CCC(CN2CCN(c3ccc(C(=O)NS(=O)(=O)c4ccc(NCC5CCOCC5)c([N+](=O)[O-])c4)c(Oc4cnc5[nH]ccc5c4)c3)CC2)=C(c2ccc(Cl)cc2)C1` [Venetoclax] + Cc1cc2ncnn2cc1Nc1ncc2c(n1)n(C1CCOCC1)c(=O)n2C [AZD7648] (first compound max 1 µM, 7x7, partner max 10 µM), the Bliss excess in [1] was -0.0493; in experiment [2], -0.0788; in [3], 0.0048; in experiment [4], -0.0302; in experiment [5], -0.0384; in [6] it was -0.0292. In addition, the “combination Emax” value in experiment [7] amounted to 0.209; in [8] it was 0.265; in experiment [9], 0.247; in [10], 0.253; with EW-22 (Ewing's Sarcoma), 0.842; with HCC38 (Breast Carcinoma), 0.165. Further, the “combination Emax” value in experiment [11] came to 0.215; in [12], 0.302; in [13], 0.856; in [14], 0.221; in experiment [15], 0.131; in [16] it was 0.36. Also, the “combination Emax” value was 0.442 in experiment [17] and 0.732 in experiment [18].

Turning to `COc1cccc(OCCCN)c1-c1cc(Nc2cnc(C#N)cn2)n[nH]1` [Prexasertib] + CN(C)CCCOc1ccc(-c2ccc3ncc4c(c3c2)n(C2CCOCC2)c(=O)n4C)cn1 [AZD0156] (first compound max 1 µM, 7x7, partner max 1 µM), the Bliss excess is -0.0292 in [1]; -0.0039 in experiment [2]; -0.0194 in experiment [3]; 0.0349 in experiment [4]; 0.0641 in [5]; -0.02 in experiment [6]. Besides, the “combination Emax” value was found to be 0.671 in experiment [7]; 0.593 in [8]; 0.348 in experiment [9]; 0.598 in experiment [10]; 0.898 in the experiment with EW-22 (Ewing's Sarcoma); 0.711 with HCC38 (Breast Carcinoma). The “combination Emax” value in experiment [11] worked out at 0.803; in [12], 0.905; in experiment [13], 0.998; in experiment [14], 0.936; in experiment [15], 0.99; in experiment [16], 0.73. The “combination Emax” value in experiment [17] was determined as 1; in experiment [18], 0.964.
